# According to patent publication US20100267561A1, “HERBICIDAL PYRIDAZINONE DERIVATIVES” (priority 2007, published 2010):
# Legend:
# Test in all cases: Test B pre-/postemergence plant response
# Format in all cases: in vivo
# [1] = test system: Russian thistle (Salsola iberica); conditions: Preemergence; for Russian Thistle plant response rating: scale 0 to 100
# Procedure, shortened: (§1)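 Preemergence and postemergence (plants 2-18 cm, 1- to 4-leaf stage) applications used test chemicals in a non-phytotoxic solvent with surfactant. Plants were held in a greenhouse 13 to 15 days, then rated visually against controls on a 0-100 scale (0 no effect, 100 complete control).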
# [2] = test system: blackgrass (Alopecurus myosuroides); conditions: Preemergence
# Procedure, shortened: as §1
# [3] = test system: catchweed bedstraw (Galium aparine); conditions: Preemergence; for Galium plant response rating: scale 0 to 100
# Procedure, shortened: as §1
# [4] = test system: cocklebur (Xanthium strumarium); conditions: Preemergence
# Procedure, shortened: as §1
# [5] = test system: common ragweed (Ambrosia elation); conditions: Preemergence; for Ragweed plant response rating: scale 0 to 100
# Procedure, shortened: as §1
# [6] = test system: corn (Zea mays); conditions: Preemergence; for Corn plant response rating: scale 0 to 100
# Procedure, shortened: as §1
# [7] = test system: goosegrass (Eleusine indica); conditions: Preemergence; for Goosegrass plant response rating: scale 0 to 100
# Procedure, shortened: as §1
# [8] = test system: johnsongrass (Sorghum halepense); conditions: Preemergence; for Johnsongrass plant response rating: scale 0 to 100
# Procedure, shortened: as §1
# [9] = test system: large crabgrass (Digitaria sanguinalis); conditions: Preemergence; for Crabgrass, Large plant response rating: scale 0 to 100
# Procedure, shortened: as §1
# [10] = test system: velvetleaf (Abutilon theophrasti); conditions: Preemergence; for Velvetleaf plant response rating: scale 0 to 100
# Procedure, shortened: as §1
# [11] = test system: wild oat (Avena fatua); conditions: Preemergence; for Oat, Wild plant response rating: scale 0 to 100
# Procedure, shortened: as §1
# [12] = test system: woolly cupgrass (Eriochloa villosa); conditions: Preemergence; for Cupgrass, Woolly plant response rating: scale 0 to 100
# Procedure, shortened: as §1
# [13] = test system: yellow nutsedge (Cyperus esculentus); conditions: Preemergence; for Nutsedge, Yellow plant response rating: scale 0 to 100
# Procedure, shortened: as §1
# [14] = 31 g ai/ha, scale 0 to 100 (0 no effect, 100 complete control)
# [15] = 62 g ai/ha, 0 to 100 scale, 0 no effect, 100 complete control
# [16] = 16 g ai/ha, scale 0 to 100 (0 no effect, 100 complete control)
structure (smiles),measurement,setting,value
C#CCOC(=O)Oc1cnn(C)c(=O)c1-n1nc(-c2ccc(Cl)cc2)cc1C [Compound 58],"Plant response rating, Russian Thistle",[1]; [14],20
same,"Plant response rating, Russian Thistle",[1]; [15],60
same,Russian Thistle plant response rating,[1]; 8 g ai/ha,0
same,Russian Thistle plant response rating,[1]; 16 g ai/ha,0
same,"Plant response rating, Blackgrass",[2]; [16],100
same,"Plant response rating, Blackgrass",[2]; [14],100
same,"Plant response rating, Blackgrass",[2]; [15],100
same,Blackgrass plant response rating,"[2]; 8 g ai/ha, scale 0 to 100",80
same,"Plant response rating, Galium",[3]; [14],0
same,"Plant response rating, Galium",[3]; [15],0
same,Galium plant response rating,[3]; 8 g ai/ha,0
same,Galium plant response rating,[3]; 16 g ai/ha,0
same,"Plant response rating, Cocklebur",[4]; [16],0
same,"Plant response rating, Cocklebur",[4]; [14],0
same,"Plant response rating, Cocklebur",[4]; [15],0
same,Cocklebur plant response rating,"[4]; 8 g ai/ha, scale 0 to 100",0
same,"Plant response rating, Ragweed",[5]; [14],0
same,"Plant response rating, Ragweed",[5]; [15],0
same,Ragweed plant response rating,[5]; 8 g ai/ha,0
same,Ragweed plant response rating,[5]; 16 g ai/ha,0
same,"Plant response rating, Corn",[6]; [14],55
same,"Plant response rating, Corn",[6]; [15],80
same,Corn plant response rating,[6]; 8 g ai/ha,0
same,Corn plant response rating,[6]; 16 g ai/ha,0
same,"Plant response rating, Goosegrass",[7]; [14],95
same,"Plant response rating, Goosegrass",[7]; [15],100
same,Goosegrass plant response rating,[7]; 8 g ai/ha,70
same,Goosegrass plant response rating,[7]; 16 g ai/ha,85
same,"Plant response rating, Johnsongrass",[8]; [14],40
same,"Plant response rating, Johnsongrass",[8]; [15],60
same,Johnsongrass plant response rating,[8]; 8 g ai/ha,0
same,Johnsongrass plant response rating,[8]; 16 g ai/ha,0
same,"Plant response rating, Crabgrass, Large",[9]; [14],90
same,"Plant response rating, Crabgrass, Large",[9]; [15],100
same,"Crabgrass, Large plant response rating",[9]; 8 g ai/ha,50
same,"Crabgrass, Large plant response rating",[9]; 16 g ai/ha,75
same,"Plant response rating, Velvetleaf",[10]; [14],0
same,"Plant response rating, Velvetleaf",[10]; [15],0
same,Velvetleaf plant response rating,[10]; 8 g ai/ha,0
same,Velvetleaf plant response rating,[10]; 16 g ai/ha,0
same,"Plant response rating, Oat, Wild",[11]; [14],80
same,"Plant response rating, Oat, Wild",[11]; [15],95
same,"Oat, Wild plant response rating",[11]; 8 g ai/ha,80
same,"Oat, Wild plant response rating",[11]; 16 g ai/ha,80
same,"Plant response rating, Cupgrass, Woolly",[12]; [14],100
same,"Plant response rating, Cupgrass, Woolly",[12]; [15],100
same,"Cupgrass, Woolly plant response rating",[12]; 8 g ai/ha,75
same,"Cupgrass, Woolly plant response rating",[12]; 16 g ai/ha,80
same,"Plant response rating, Nutsedge, Yellow",[13]; [14],0
same,"Plant response rating, Nutsedge, Yellow",[13]; [15],0
same,"Nutsedge, Yellow plant response rating",[13]; 8 g ai/ha,0
same,"Nutsedge, Yellow plant response rating",[13]; 16 g ai/ha,0
